As usually defined, the IC50 is the concentration that inhibits the measured activity by half.

In US8361959B2, “Spiro-imidazolone derivatives as glucagon receptor antagonists” (Merck Sharp & Dohme Corp., priority 2008, dated 2013) one finds IC50 data, which are given here for 2 molecules.

In this assay the target is T1, recombinant human glucagon receptor (Homo sapiens, UniProt P47871).
T1 construct: expressed in transfected cells; host or cells: CHO (Chinese hamster ovary) cells
The experiment in a line: Inhibition of glucagon-stimulated intracellular cAMP assay. Conditions: CHO cells expressing recombinant human glucagon receptor, stimulated with 300 pM glucagon, LANCE cAMP. It counts as cell-based. Here is the method: Inhibition of Glucagon-Stimulated Intracellular cAMP Assay
Chinese hamster ovary (CHO) cells expressing the recombinant human glucagon receptor were harvested with the aid of non-enzymatic cell dissociation solution (GIBCO 13151-014). The cells were then pelleted and suspended in the stimulation buffer (1×HBSS, 5 mM Hepes, 0.1% BSA, pH7.4 in presence of complete protease inhibitor and phosphodiesterase inhibitor). The adenylate cyclase assay was conducted following the LANCE cAMP Kit (Perkin Elmer, AD0262) instructions. Briefly, cells were preincubated with anti-cAMP antibody in the stimulation buffer with a final concentration of 3% DMSO for 30 minutes and then stimulated with 300 pM glucagon for 45 minutes. The reaction was stopped by incubating with the detection buffer containing Europium chelate of the Eu-SA/Biotin-cAMP tracer for 20 hours. The fluorescence intensity emitted from the assay was measured at 665 nm using PheraStar instruments. […] Standard cAMP concentrations were conducted concurrently for conversion of fluorescence signal to cAMP level. Data was analyzed using GraphPad Prism. IC50 values were calculated using non-linear regression analysis assuming single site competition. […] Some of the compounds of the invention shown in the examples measured less than about 5 μM in this assay; other examples measured less than about 500 nM; others less than about 100 nM. […]

T1 sequence (P47871 26-477): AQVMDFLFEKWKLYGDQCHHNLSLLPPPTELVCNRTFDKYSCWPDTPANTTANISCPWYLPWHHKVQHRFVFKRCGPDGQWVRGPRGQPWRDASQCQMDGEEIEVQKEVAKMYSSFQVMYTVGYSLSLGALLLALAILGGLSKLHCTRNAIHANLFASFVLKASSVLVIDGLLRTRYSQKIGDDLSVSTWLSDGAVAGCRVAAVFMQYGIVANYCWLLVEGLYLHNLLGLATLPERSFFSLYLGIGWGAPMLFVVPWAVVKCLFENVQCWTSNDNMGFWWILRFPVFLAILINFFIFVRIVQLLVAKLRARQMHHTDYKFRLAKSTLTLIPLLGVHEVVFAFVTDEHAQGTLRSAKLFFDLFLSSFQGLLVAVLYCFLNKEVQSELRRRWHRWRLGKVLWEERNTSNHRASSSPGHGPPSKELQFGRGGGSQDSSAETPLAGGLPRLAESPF

As to `CCC[C@H](c1ccc(C(=O)NCc2nn[nH]n2)cc1)N1C(=O)C(c2cccc(Cl)c2)=NC12CCC(C(C)(C)C)CC2` (some centres unmarked) [Example 1.156], the IC50 turned out to be 452 nM.

For `CC(C)(C)C1CCC2(CC1)N=C(c1ccc(F)cc1)C(=O)N2[C@@H](c1ccc(C(=O)NCCC(=O)O)cc1)C1CC1` (some centres unmarked) [Example 1.212], the IC50 is 57 nM.
